Experimental data from patent publication US20190328752A1, “COMPOUNDS FOR THE TREATMENT OF NIEMANN-PICK DISEASE TYPE C1” (UNIVERSITEIT MAASTRICHT, priority 2016, published 2019).
Like-named read-outs stand apart in the source and are kept apart here.

Tests used:
[1] = test system: NPC1WT BMDMs; test: Gene expression of inflammatory mediators in oxLDL/LPS-stimulated BMDMs, wild type; assay type: cell-based, mice; settings: 0.6 μM sitostanol; p=0.028; FIG. 1B
Experimental: (§1) Bone-marrow derived cells (BMDCs) were isolated from tibea and femurs of NPC1 wild type (WT) and mutant mice on a C57BL/6 background. BMDCs were cultured for 8-9 days in RPMI-1640 (GIBCO Invitrogen, Breda, The Netherlands) with 10% heat-inactivated fetal calf serum (Bodinco B. V. Alkmaar, The Netherlands), penicillin (100 U/ml), streptomycin (100 μg/ml) and L-glutamine (2 mM) (all GIBCO invitrogen, Breda, The Netherlands) enriched with 20% L929-conditioned medium (LCM) to generate bone marrow-derived macrophages (BMDMs). After attachment, the BMDMs were seeded at 350,000 cells per well in 24 wells plates and incubated with oxLDL for 24. After the oxLDL stimulation, the cells were washed and incubated with cyclodextrin (carrier control) or 0.6 μM sitostanol for 4 hours. The BMDMs were subsequently washed and stimulated with 100 ng/ml LPS for 4 hours to generate an inflammatory response. Finally, BMDMs were lysed for RNA isolation. Gene expression analysis of inflammatory (TNFα, Arginase 1 and inducible NOS), anti-inflammatory (IL-10) and lysosomal cholesterol trafficking (NPC1 and NPC2) genes was performed. Furthermore, the supernatant was frozen until protein expression analysis of the pro-inflammatory TNFα was performed by Enzyme-Linked Immunosorbent Assay (ELISA).

[2] = test system: NPC1WT BMDMs; test: TNFα secretion (ELISA) by oxLDL/LPS-stimulated BMDMs, wild type; assay type: cell-based, mice; settings: 0.6 μM sitostanol 4 hours after oxLDL, then LPS; vs carrier control; p=0.000; FIG. 1A
Experimental: as §1, with “Furthermore, the supernatant was frozen until protein expression analysis of the pro-inflammatory TNFα was performed by Enzyme-Linked Immunosorbent Assay (ELISA).” left out
(§2) Mouse TNFα secreted protein levels were determined by using the TNFα ELISA kit (mouse TNFα ELISA Ready-SET-Go!, eBioscience, San Diego, Calif.). […] Optical density (OD) was measured at 450 nm by using a spectrophotometer and TNFα concentrations were determined.

[3] = test system: NPC1mut BMDMs; test: Gene expression of inflammatory mediators in oxLDL/LPS-stimulated BMDMs, mutant; assay type: cell-based, mice; settings: FIG. 1B
Experimental: as §1

[4] = humans, cited from earlier work
[5] = test system: NPC1mut BMDMs; test: TNFα secretion (ELISA) by oxLDL/LPS-stimulated BMDMs, mutant; assay type: cell-based, mice; settings: 0.6 μM sitostanol 4 hours after oxLDL, then LPS; vs carrier control; p=0.000; FIG. 1A
Experimental: as §1, with “Furthermore, the supernatant was frozen until protein expression analysis of the pro-inflammatory TNFα was performed by Enzyme-Linked Immunosorbent Assay (ELISA).” left out
as §2

[6] = in vivo; cited from earlier work

| Molecule | gene expression of IL-10 [1] | TNFα secretion [2] | gene expression of arginase 1 (M2 macrophage marker) ([3]; 0.6 μM sitostanol vs carrier control, p=0.000) | gene expression of Tnfα ([3]; 0.6 μM sitostanol vs carrier control, p=0.136) | iNOS/arginase 1 gene expression ratio ([3]; 0.6 μM sitostanol vs control-treated NPC1mut BMDMs, p=0.074) | plasma concentration ([4]; 3 grams per day) [microgram per dl] | plasma concentration ([4]; 9 grams per day) [microgram per dl] | TNFα secretion [5] | ability to cross the blood brain barrier [6] |
| --- | --- | --- | --- | --- | --- | --- | --- | --- | --- |
| CC[C@H](CC[C@@H](C)[C@H]1CC[C@H]2[C@@H]3CC[C@H]4C[C@@H](O)CC[C@]4(C)[C@H]3CC[C@]12C)C(C)C [sitostanol] | increased | significantly reduced | significantly increased | trend towards reduced expression | trend towards a reduced | 40.9 | 57.2 | significantly reduced |  |
| cyclodextrin |  |  |  |  |  |  |  |  | inability of cyclodextrin to cross the blood brain barrier |
